Columns and labels:
Assay in all cases: radiometric filter-binding kinase assay
[1] = system: AKT2 (human), P31751 [S474D]
AURKA (human) = AURKA (human) (UniProt O14965)
AURKB (human) = AURKB (human) (UniProt Q96GD4)
CHEK1 (human) = CHEK1 (human) (UniProt O14757)
CSNK1D (human) = CSNK1D (human) (UniProt P48730)
EEF2K (human) = EEF2K (human) (UniProt O00418)
EPHB1 (human) = EPHB1 (human) (UniProt P54762)
EPHB4 (human) = EPHB4 (human) (UniProt P54760)
FGFR1 (human) = FGFR1 (human) (UniProt P11362)
FLT1 (human) = FLT1 (human) (UniProt P17948)
GCK (human) = GCK (human) (UniProt Q12851)
GSK3B (human) = GSK3B (human) (UniProt P49841)
HIPK1 (human) = HIPK1 (human) (UniProt Q86Z02)
HIPK2 (human) = HIPK2 (human) (UniProt Q9H2X6)
IGF1R (human) = IGF1R (human) (UniProt P08069)
MAP2K2 (human) = MAP2K2 (human) (UniProt P36507)
MAP3K1 (human) = MAP3K1 (human) (UniProt Q13233)
MAP3K5 (human) = MAP3K5 (human) (UniProt Q99683)
MAP3K9 (human) = MAP3K9 (human) (UniProt P80192)
MAPK1 (human) = MAPK1 (human) (UniProt P28482)
MAPK10 (human) = MAPK10 (human) (UniProt P53779)
MAPK13 (human) = MAPK13 (human) (UniProt O15264)
MAPK9 (human) = MAPK9 (human) (UniProt P45984)
MARK4 (human) = MARK4 (human) (UniProt Q96L34)
MELK (human) = MELK (human) (UniProt Q14680)
MYLK (human) = MYLK (human) (UniProt Q15746)
[2] = system: PAK2 (human), Q13177 [T402E]
PAK6 (human) = PAK6 (human) (UniProt Q9NQU5)
PKN2 (human) = PKN2 (human) (UniProt Q16513)
PRKCZ (human) = PRKCZ (human) (UniProt Q05513)
SRC (human) = SRC (human) (UniProt P12931)
[3] = molecular target: STK11 CAB39 STRADA (human) (UniProt Q9Y376+Q7RTN6+Q15831)
SYK (human) = SYK (human) (UniProt P43405)
TAOK1 (human) = TAOK1 (human) (UniProt Q7L7X3)
TTK (human) = TTK (human) (UniProt P33981)
YES1 (human) = YES1 (human) (UniProt P07947)
YES1 (human), sequence (P07947 whole entry, looked up): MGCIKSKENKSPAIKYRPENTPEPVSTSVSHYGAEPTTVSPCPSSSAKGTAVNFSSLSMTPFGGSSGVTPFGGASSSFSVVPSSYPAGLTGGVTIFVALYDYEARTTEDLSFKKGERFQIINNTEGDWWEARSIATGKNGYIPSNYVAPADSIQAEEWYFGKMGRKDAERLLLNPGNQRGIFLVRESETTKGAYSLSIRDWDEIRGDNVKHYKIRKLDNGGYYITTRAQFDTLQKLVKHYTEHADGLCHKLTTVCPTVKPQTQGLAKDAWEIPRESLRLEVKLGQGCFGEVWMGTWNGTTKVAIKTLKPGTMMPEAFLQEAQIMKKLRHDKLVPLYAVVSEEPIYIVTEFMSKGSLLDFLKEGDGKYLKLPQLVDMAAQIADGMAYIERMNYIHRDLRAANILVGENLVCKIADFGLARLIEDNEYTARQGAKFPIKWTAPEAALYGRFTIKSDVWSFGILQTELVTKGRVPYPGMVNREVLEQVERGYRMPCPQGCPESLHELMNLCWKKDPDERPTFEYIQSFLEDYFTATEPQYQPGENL

TAOK1 (human), sequence (Q7L7X3 whole entry, looked up): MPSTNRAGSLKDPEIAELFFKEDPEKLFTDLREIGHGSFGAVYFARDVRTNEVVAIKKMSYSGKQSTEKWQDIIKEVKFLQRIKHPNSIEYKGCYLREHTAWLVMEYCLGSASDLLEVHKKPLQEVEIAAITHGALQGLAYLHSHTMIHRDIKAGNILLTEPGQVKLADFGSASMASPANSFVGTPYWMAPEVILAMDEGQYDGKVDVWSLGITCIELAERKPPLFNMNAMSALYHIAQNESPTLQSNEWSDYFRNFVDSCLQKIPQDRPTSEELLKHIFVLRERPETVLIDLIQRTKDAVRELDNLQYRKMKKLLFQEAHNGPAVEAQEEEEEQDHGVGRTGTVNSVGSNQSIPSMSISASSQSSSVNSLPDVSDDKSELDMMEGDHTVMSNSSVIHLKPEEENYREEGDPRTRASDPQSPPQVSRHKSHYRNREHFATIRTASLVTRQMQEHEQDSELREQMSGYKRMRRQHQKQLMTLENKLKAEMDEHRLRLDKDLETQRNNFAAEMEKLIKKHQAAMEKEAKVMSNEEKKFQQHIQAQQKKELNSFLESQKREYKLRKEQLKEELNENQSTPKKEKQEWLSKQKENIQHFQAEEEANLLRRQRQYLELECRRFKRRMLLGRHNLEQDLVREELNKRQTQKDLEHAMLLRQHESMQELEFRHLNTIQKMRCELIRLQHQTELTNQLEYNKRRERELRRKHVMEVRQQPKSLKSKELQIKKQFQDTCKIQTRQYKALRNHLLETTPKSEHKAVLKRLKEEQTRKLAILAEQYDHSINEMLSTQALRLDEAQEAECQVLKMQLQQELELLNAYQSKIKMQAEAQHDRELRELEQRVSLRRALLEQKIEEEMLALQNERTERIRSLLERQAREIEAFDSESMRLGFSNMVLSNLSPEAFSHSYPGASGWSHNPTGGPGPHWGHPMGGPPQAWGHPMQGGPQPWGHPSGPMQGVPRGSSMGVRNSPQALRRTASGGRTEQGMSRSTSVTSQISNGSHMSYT
PKN2 (human), sequence (Q16513 whole entry, looked up): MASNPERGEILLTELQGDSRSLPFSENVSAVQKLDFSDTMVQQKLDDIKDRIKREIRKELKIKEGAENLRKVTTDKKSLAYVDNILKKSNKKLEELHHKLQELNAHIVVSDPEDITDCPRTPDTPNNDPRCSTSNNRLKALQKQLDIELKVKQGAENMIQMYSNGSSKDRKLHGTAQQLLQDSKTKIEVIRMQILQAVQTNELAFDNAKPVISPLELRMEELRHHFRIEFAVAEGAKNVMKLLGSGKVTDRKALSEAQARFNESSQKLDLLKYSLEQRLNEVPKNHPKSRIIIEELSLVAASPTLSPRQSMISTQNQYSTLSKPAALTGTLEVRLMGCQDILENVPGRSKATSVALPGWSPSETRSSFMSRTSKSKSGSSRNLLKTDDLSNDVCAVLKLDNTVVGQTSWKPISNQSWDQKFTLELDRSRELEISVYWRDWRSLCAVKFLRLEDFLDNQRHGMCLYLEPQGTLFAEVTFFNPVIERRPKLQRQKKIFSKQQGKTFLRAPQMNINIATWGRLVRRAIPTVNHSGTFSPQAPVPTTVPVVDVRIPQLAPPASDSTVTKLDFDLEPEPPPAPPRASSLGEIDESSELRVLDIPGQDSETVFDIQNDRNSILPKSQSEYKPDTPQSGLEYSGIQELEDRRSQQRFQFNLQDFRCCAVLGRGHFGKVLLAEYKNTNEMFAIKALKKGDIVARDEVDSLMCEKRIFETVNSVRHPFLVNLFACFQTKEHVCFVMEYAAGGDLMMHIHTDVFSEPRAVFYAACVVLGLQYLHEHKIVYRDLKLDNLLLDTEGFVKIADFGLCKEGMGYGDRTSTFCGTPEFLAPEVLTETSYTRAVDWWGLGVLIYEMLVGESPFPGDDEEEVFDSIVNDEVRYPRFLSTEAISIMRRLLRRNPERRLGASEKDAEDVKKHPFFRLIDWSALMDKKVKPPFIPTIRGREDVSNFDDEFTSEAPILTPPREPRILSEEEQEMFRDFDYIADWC
GSK3B (human), sequence (P49841 whole entry, looked up): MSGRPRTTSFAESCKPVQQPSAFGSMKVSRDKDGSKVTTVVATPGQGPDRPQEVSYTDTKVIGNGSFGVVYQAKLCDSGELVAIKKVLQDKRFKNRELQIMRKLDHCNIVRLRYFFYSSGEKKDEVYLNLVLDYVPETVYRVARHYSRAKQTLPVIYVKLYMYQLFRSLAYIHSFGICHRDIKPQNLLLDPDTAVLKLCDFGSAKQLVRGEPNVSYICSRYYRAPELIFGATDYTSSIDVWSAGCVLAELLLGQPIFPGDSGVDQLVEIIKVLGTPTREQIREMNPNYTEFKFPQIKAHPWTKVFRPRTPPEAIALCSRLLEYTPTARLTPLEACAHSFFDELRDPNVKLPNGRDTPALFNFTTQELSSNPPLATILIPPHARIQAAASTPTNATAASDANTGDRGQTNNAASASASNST
EEF2K (human), sequence (O00418 whole entry, looked up): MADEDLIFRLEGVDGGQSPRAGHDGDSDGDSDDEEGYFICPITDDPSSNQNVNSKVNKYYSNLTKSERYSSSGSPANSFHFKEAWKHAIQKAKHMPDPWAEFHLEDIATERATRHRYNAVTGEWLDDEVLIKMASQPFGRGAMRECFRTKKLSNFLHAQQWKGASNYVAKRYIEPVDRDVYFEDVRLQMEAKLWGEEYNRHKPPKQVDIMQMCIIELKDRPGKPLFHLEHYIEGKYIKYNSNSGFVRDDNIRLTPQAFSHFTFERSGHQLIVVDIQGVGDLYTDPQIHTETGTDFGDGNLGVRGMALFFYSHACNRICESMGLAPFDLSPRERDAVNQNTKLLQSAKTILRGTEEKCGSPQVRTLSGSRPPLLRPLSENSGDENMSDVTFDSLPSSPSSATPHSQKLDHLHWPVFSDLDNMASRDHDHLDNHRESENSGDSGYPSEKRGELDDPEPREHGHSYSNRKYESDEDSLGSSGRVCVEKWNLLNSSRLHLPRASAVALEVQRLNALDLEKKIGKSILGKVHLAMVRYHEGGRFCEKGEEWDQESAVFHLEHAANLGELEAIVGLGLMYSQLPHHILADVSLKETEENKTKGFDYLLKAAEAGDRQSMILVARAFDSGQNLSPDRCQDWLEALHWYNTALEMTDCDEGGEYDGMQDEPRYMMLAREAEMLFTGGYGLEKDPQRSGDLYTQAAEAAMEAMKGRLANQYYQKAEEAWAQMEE
PAK6 (human), sequence (Q9NQU5 whole entry, looked up): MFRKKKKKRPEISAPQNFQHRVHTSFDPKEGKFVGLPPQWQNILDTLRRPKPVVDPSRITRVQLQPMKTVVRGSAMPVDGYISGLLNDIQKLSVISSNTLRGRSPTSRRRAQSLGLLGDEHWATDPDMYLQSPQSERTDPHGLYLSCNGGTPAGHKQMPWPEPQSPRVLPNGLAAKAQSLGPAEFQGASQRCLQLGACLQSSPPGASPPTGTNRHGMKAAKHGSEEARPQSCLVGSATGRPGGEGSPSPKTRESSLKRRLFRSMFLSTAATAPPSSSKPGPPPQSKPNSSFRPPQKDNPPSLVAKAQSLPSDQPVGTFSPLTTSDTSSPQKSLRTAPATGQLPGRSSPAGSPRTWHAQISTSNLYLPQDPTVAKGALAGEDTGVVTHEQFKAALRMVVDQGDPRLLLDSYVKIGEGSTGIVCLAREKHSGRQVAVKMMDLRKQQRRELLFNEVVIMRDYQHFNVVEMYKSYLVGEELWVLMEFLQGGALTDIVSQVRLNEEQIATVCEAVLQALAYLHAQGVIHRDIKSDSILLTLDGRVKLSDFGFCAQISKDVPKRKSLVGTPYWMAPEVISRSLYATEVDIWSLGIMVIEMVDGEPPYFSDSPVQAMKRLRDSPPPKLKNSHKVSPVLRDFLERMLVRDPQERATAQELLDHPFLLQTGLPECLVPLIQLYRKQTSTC
CHEK1 (human), sequence (O14757 whole entry, looked up): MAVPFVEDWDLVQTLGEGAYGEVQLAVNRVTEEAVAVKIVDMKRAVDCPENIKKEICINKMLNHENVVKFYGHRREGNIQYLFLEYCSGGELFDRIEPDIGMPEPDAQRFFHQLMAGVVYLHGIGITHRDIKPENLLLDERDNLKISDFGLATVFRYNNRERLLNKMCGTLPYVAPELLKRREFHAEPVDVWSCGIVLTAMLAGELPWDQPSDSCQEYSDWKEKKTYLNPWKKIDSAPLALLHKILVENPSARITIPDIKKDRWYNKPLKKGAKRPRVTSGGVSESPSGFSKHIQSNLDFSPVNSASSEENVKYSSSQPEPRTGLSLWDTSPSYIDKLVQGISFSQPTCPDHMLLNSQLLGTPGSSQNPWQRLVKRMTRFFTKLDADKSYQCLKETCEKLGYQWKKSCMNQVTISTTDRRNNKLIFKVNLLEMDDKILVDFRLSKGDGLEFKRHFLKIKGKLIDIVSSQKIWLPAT

CCCCCc1ccc(/C=C/[C@H](O)[C@@H](CO)NC)cc1
residual activity ([1]; compound 0.1 µM): 85%
residual activity ([1]; compound 1.0 µM): 90%
residual activity ([1]; compound 10.0 µM): 86%
residual activity (AURKA (human); compound 0.1 µM): 116%
residual activity (AURKA (human); compound 1.0 µM): 105%
residual activity (AURKA (human); compound 10.0 µM): 92%
residual activity (AURKB (human); compound 0.1 µM): 100%
residual activity (AURKB (human); compound 1.0 µM): 102%
residual activity (AURKB (human); compound 10.0 µM): 93%
residual activity (CHEK1 (human); compound 0.1 µM): 96%
residual activity (CHEK1 (human); compound 1.0 µM): 92%
residual activity (CHEK1 (human); compound 10.0 µM): 86%
residual activity (CSNK1D (human); compound 0.1 µM): 88%
residual activity (CSNK1D (human); compound 1.0 µM): 87%
residual activity (CSNK1D (human); compound 10.0 µM): 81%
residual activity (EEF2K (human); compound 0.1 µM): 93%
residual activity (EEF2K (human); compound 1.0 µM): 76%
residual activity (EEF2K (human); compound 10.0 µM): 69%
residual activity (EPHB1 (human); compound 0.1 µM): 126%
residual activity (EPHB1 (human); compound 1.0 µM): 108%
residual activity (EPHB1 (human); compound 10.0 µM): 115%
residual activity (EPHB4 (human); compound 0.1 µM): 122%
residual activity (EPHB4 (human); compound 1.0 µM): 101%
residual activity (EPHB4 (human); compound 10.0 µM): 123%
residual activity (FGFR1 (human); compound 0.1 µM): 115%
residual activity (FGFR1 (human); compound 1.0 µM): 111%
residual activity (FGFR1 (human); compound 10.0 µM): 104%
residual activity (FLT1 (human); compound 0.1 µM): 95%
residual activity (FLT1 (human); compound 1.0 µM): 81%
residual activity (FLT1 (human); compound 10.0 µM): 83%
residual activity (GCK (human); compound 0.1 µM): 86%
residual activity (GCK (human); compound 1.0 µM): 72%
residual activity (GCK (human); compound 10.0 µM): 71%
residual activity (GSK3B (human); compound 0.1 µM): 83%
residual activity (GSK3B (human); compound 1.0 µM): 88%
residual activity (GSK3B (human); compound 10.0 µM): 71%
residual activity (HIPK1 (human); compound 0.1 µM): 92%
residual activity (HIPK1 (human); compound 1.0 µM): 112%
residual activity (HIPK1 (human); compound 10.0 µM): 94%
residual activity (HIPK2 (human); compound 0.1 µM): 108%
residual activity (HIPK2 (human); compound 1.0 µM): 106%
residual activity (HIPK2 (human); compound 10.0 µM): 106%
residual activity (IGF1R (human); compound 0.1 µM): 87%
residual activity (IGF1R (human); compound 1.0 µM): 86%
residual activity (IGF1R (human); compound 10.0 µM): 93%
residual activity (MAP2K2 (human); compound 0.1 µM): 104%
residual activity (MAP2K2 (human); compound 1.0 µM): 103%
residual activity (MAP2K2 (human); compound 10.0 µM): 109%
residual activity (MAP3K1 (human); compound 0.1 µM): 93%
residual activity (MAP3K1 (human); compound 1.0 µM): 99%
residual activity (MAP3K1 (human); compound 10.0 µM): 89%
residual activity (MAP3K5 (human); compound 0.1 µM): 115%
residual activity (MAP3K5 (human); compound 1.0 µM): 99%
residual activity (MAP3K5 (human); compound 10.0 µM): 94%
residual activity (MAP3K9 (human); compound 0.1 µM): 105%
residual activity (MAP3K9 (human); compound 1.0 µM): 108%
residual activity (MAP3K9 (human); compound 10.0 µM): 100%
residual activity (MAPK1 (human); compound 0.1 µM): 98%
residual activity (MAPK1 (human); compound 1.0 µM): 90%
residual activity (MAPK1 (human); compound 10.0 µM): 100%
residual activity (MAPK10 (human); compound 0.1 µM): 93%
residual activity (MAPK10 (human); compound 1.0 µM): 103%
residual activity (MAPK10 (human); compound 10.0 µM): 98%
residual activity (MAPK13 (human); compound 0.1 µM): 90%
residual activity (MAPK13 (human); compound 1.0 µM): 99%
residual activity (MAPK13 (human); compound 10.0 µM): 90%
residual activity (MAPK9 (human); compound 0.1 µM): 85%
residual activity (MAPK9 (human); compound 1.0 µM): 90%
residual activity (MAPK9 (human); compound 10.0 µM): 88%
residual activity (MARK4 (human); compound 0.1 µM): 90%
residual activity (MARK4 (human); compound 1.0 µM): 89%
residual activity (MARK4 (human); compound 10.0 µM): 93%
residual activity (MELK (human); compound 0.1 µM): 108%
residual activity (MELK (human); compound 1.0 µM): 99%
residual activity (MELK (human); compound 10.0 µM): 98%
residual activity (MYLK (human); compound 0.1 µM): 90%
residual activity (MYLK (human); compound 1.0 µM): 95%
residual activity (MYLK (human); compound 10.0 µM): 91%
residual activity ([2]; compound 0.1 µM): 113%
residual activity ([2]; compound 1.0 µM): 103%
residual activity ([2]; compound 10.0 µM): 113%
residual activity (PAK6 (human); compound 0.1 µM): 105%
residual activity (PAK6 (human); compound 1.0 µM): 108%
residual activity (PAK6 (human); compound 10.0 µM): 103%
residual activity (PKN2 (human); compound 0.1 µM): 78%
residual activity (PKN2 (human); compound 1.0 µM): 70%
residual activity (PKN2 (human); compound 10.0 µM): 58%
residual activity (PRKCZ (human); compound 0.1 µM): 106%
residual activity (PRKCZ (human); compound 1.0 µM): 108%
residual activity (PRKCZ (human); compound 10.0 µM): 92%
residual activity (SRC (human); compound 0.1 µM): 105%
residual activity (SRC (human); compound 1.0 µM): 100%
residual activity (SRC (human); compound 10.0 µM): 111%
residual activity ([3]; compound 0.1 µM): 93%
residual activity ([3]; compound 1.0 µM): 89%
residual activity ([3]; compound 10.0 µM): 98%
residual activity (SYK (human); compound 0.1 µM): 134%
residual activity (SYK (human); compound 1.0 µM): 105%
residual activity (SYK (human); compound 10.0 µM): 92%
residual activity (TAOK1 (human); compound 0.1 µM): 102%
residual activity (TAOK1 (human); compound 1.0 µM): 108%
residual activity (TAOK1 (human); compound 10.0 µM): 91%
residual activity (TTK (human); compound 0.1 µM): 95%
residual activity (TTK (human); compound 1.0 µM): 91%
residual activity (TTK (human); compound 10.0 µM): 86%
residual activity (YES1 (human); compound 0.1 µM): 123%
residual activity (YES1 (human); compound 1.0 µM): 100%
residual activity (YES1 (human); compound 10.0 µM): 109%

— the kinase profiling compilation of Christmann-Franck et al. (2016)
